# Test results as given in patent EP1555271A1, “Peptides useful for diagnosis and therapy of TRP-2+ and/or TRP-1+ tumors” (Deutsches Krebsforschungszentrum Stiftung des öffentlichen …, priority 2004, dated 2005).
# Ends that are not written are not given here.
# Biological target: HLA-DRB1*0301 (Homo sapiens, UniProt P01903+P01911, A100K/A102G/A103R/A169T/F55Y/I96L/K41T/L162R/M171V/P40S/Q125H/Q178H/Q39Y/R42S/S66N/T106N/T262R/W38E/Y61H)
# Assay: HLA-DR competitive binding assay on T2.DR3 cells (biotinylated TT829-843 reporter peptide, Europium sandwich immunoassay)
# Details: dose necessary to reduce TT reporter peptide binding to 50%, 10 µM TT829-843 reporter, 180 min
sequence,measurement,value
"HLLCLERDLQRLIGN [TRP-2223-237, HLLCLERDLQRLIGN]",IC50,7.5 µM
